Test results taken from ChEMBL document CHEMBL2380203, “Structure-activity relationship of cytochrome bc1 reductase inhibitor broad spectrum antifungal ilicicolin H” (Bioorg Med Chem Lett, 2013).
≈ marks a conversion by molar mass, not a printed value.

Tests used:
Candida albicans = assay: Antifungal activity against Candida albicans MY1055 assessed as growth inhibition after 24 hrs by liquid microdilution assay; assay type: functional; settings: MY1055, 24 h
[1] = Inhibition of Candida albicans MY1055 NADH:cytochrome bc1 reductase
[2] = Inhibition of rat liver NADH:cytochrome bc1 reductase

MIC (Candida albicans) [µg/mL] | IC50 [1] [µg/mL] | IC50 [2] [µg/mL] | Structure (SMILES)
> 1 | 0.008 (≈ 0.0173 µM) |  | C/C=C/[C@@H]1[C@H]2C[C@@H](C)CC[C@@H]2C(C)=C[C@H]1C(=O)c1c(O)c(-c2ccc(OC)cc2)cn(C)c1=O
0.25 (≈ 0.559 µM) | 0.0016 (≈ 0.00357 µM) | 0.25 (≈ 0.559 µM) | C/C=C/[C@@H]1[C@H]2C[C@@H](C)CC[C@@H]2C(C)=C[C@H]1C(=O)c1c(O)c(-c2ccc(O)cc2)cn(C)c1=O
> 5 | 0.0008 (≈ 0.00137 µM) | 0.01 (≈ 0.0171 µM) | C/C=C/[C@@H]1[C@H]2C[C@@H](COC(=O)C3CC3)CC[C@@H]2C(C)=C[C@H]1C(=O)c1c(O)c(-c2ccc(OC(=O)C3CC3)cc2)c[nH]c1=O
5 (≈ 7.92 µM) | 0.2 (≈ 0.317 µM) | 1 (≈ 1.58 µM) | C/C=C/[C@@H]1[C@H]2C[C@@H](C)CC[C@@H]2C(C)=C[C@H]1C(=O)c1c(O)c(-c2ccc(OC(=O)Nc3ccc(Br)cc3)cc2)c[nH]c1=O
1 (≈ 1.95 µM) | 0.1 (≈ 0.195 µM) |  | C/C=C/[C@@H]1[C@H]2C[C@@H](C)CC[C@@H]2C(C)=C[C@H]1C(=O)c1c(O)c(-c2ccc(OCC#N)cc2)cn(CC#N)c1=O
> 5 | > 1 | 1 (≈ 1.69 µM) | C/C=C/[C@@H]1[C@H]2C[C@@H](C)CC[C@@H]2[C@](C)(Br)[C@H]2Oc3ncc(-c4ccc(O)c(Br)c4)c(O)c3C(=O)[C@@H]12
5 (≈ 10.7 µM) | 0.2 (≈ 0.427 µM) | 1 (≈ 2.14 µM) | C/C=C/[C@@H]1[C@H]2C[C@@H](C)CC[C@@H]2[C@](C)(Cl)[C@H]2Oc3ncc(-c4ccc(O)cc4)c(O)c3C(=O)[C@@H]12
1 (≈ 1.84 µM) | 0.005 (≈ 0.0092 µM) | > 1 | C/C=C/[C@@H]1[C@H]2C[C@@H](C)CC[C@@H]2C(C)=C[C@H]1C(=O)c1c(O)c(-c2ccc(OC(=O)c3ccsc3)cc2)c[nH]c1=O
> 1 | 0.4 (≈ 0.736 µM) | > 1.6 | C/C=C/[C@@H]1[C@H]2C[C@@H](C)CC[C@@H]2C(C)=C[C@H]1C(=O)c1c(O)c(-c2ccc(OC(=O)C3CCCCC3)cc2)c[nH]c1=O
> 5 | 1 (≈ 1.79 µM) | 1 (≈ 1.79 µM) | C/C=C/[C@@H]1[C@H]2C[C@@H](C)CC[C@@H]2[C@](C)(I)[C@H]2Oc3ncc(-c4ccc(O)cc4)c(O)c3C(=O)[C@@H]12
0.312 (≈ 0.54 µM) | 0.02 (≈ 0.0346 µM) | 1.6 (≈ 2.77 µM) | C/C=C/[C@@H]1[C@H]2C[C@@H](C)CC[C@@H]2C(C)=C[C@H]1C(=O)c1c(O)c(-c2ccc(OC(=O)C/C=C/c3ccccc3)cc2)c[nH]c1=O
> 5 |  |  | C/C=C/[C@@H]1[C@H]2C[C@@H](C)CC[C@@H]2[C@](C)(I)[C@H]2Oc3ncc(-c4ccc(O)c(I)c4)c(O)c3C(=O)[C@@H]12
> 5 | > 1.6 | 1.6 (≈ 2.42 µM) | C/C=C/[C@@H]1[C@H]2C[C@@H](C)CC[C@@H]2C(C)=C[C@H]1C(=O)c1c(O)c(-c2ccc(OCC(=O)OC(C)(C)C)cc2)cn(CC(=O)OC(C)(C)C)c1=O
> 1 | > 1 |  | C/C=C/[C@H]1[C@@H]2C(=O)c3c(ncc(-c4ccc(O)cc4)c3O)O[C@@H]2C(C)=C2CC[C@H](C)C[C@@H]21
0.062 (≈ 0.12 µM) | 0.002 (≈ 0.00388 µM) | > 0.8 | C/C=C/[C@@H]1[C@H]2C[C@@H](C)CC[C@@H]2C(C)=C[C@H]1C(=O)c1c(O)c(-c2ccc(OC(=O)C3CCC3)cc2)c[nH]c1=O
> 1 | 0.2 (≈ 0.365 µM) | > 1 | C/C=C/[C@@H]1[C@H]2C[C@@H](C)CC[C@@H]2C(C)=C[C@H]1C(=O)c1c(O)c(-c2ccc(OCC(N)=O)cc2)cn(CC(N)=O)c1=O
1 (≈ 2.11 µM) | 0.008 (≈ 0.0169 µM) | 1 (≈ 2.11 µM) | C=CCn1cc(-c2ccc(O)cc2)c(O)c(C(=O)[C@@H]2C=C(C)[C@H]3CC[C@H](C)C[C@@H]3[C@H]2/C=C/C)c1=O
0.5 (≈ 1.02 µM) | 0.0021 (≈ 0.00427 µM) | > 1.6 | C/C=C/[C@@H]1[C@H]2C[C@@H](COC(C)=O)CC[C@@H]2C(C)=C[C@H]1C(=O)c1c(O)c(-c2ccc(O)cc2)c[nH]c1=O
0.5 (≈ 1.02 µM) | 0.16 (≈ 0.325 µM) | > 0.8 | C/C=C/[C@@H]1[C@H]2C[C@@H](CO)CC[C@@H]2C(C)=C[C@H]1C(=O)c1c(O)c(-c2ccc(OC(C)=O)cc2)c[nH]c1=O
0.062 (≈ 0.124 µM) | 0.015 (≈ 0.0299 µM) | > 0.8 | C/C=C/[C@@H]1[C@H]2C[C@@H](C)CC[C@@H]2C(C)=C[C@H]1C(=O)c1c(O)c(-c2ccc(OC(=O)C3CC3)cc2)c[nH]c1=O
0.25 (≈ 0.559 µM) | 0.003 (≈ 0.0067 µM) | 0.2 (≈ 0.447 µM) | C/C=C/[C@@H]1[C@H]2C[C@@H](C)CC[C@@H]2C(C)=C[C@H]1C(=O)c1c(O)c(-c2ccc(OC)cc2)c[nH]c1=O
